Measured values: ChEMBL document CHEMBL3885881, “DrugMatrix”

Species on record: Rattus norvegicus
Test: DrugMatrix - Regimen: Daily Repeat
Assay type: toxicity, organism-based, Sprague-Dawley
Set-up: regimen Daily Repeat, gender Male, age 6-8 weeks
Settings: in vivo, po, route oral GAVAGE, […]; for ABSOLUTE BASOPHIL / ABSOLUTE EOSINOPHIL / ABSOLUTE LYMPHOCYTE / ABSOLUTE MONOCYTE / ABSOLUTE SEGMENTED NEUTROPHIL / BASOPHIL / EOSINOPHIL / ERYTHROCYTE COUNT / HEMATOCRIT / HEMOGLOBIN / LEUKOCYTE COUNT / LYMPHOCYTE / MEAN CORPUSCULAR HEMOGLOBIN / MEAN CORPUSCULAR HEMOGLOBIN CONCENTRATION / MEAN CORPUSCULAR VOLUME / MONOCYTE / NEUTROPHIL / NUCLEATED RED BLOOD CELLS / PLATELET COUNT: tissue Blood; for ALANINE AMINOTRANSFERASE / ALBUMIN / ALKALINE PHOSPHATASE / ASPARTATE AMINOTRANSFERASE / BLOOD UREA NITROGEN / CARBON DIOXIDE / CHLORIDE / CHOLESTEROL / CREATINE PHOSPHOKINASE / CREATININE / GLUCOSE / LACTATE DEHYDROGENASE / LIPASE / PHOSPHORUS / POTASSIUM / SODIUM / TOTAL BILIRUBIN / TOTAL PROTEIN / URIC ACID: tissue Plasma
[1] = 29 mg/kg, 120 h, dose level Low, time 5 day
[2] = 450 mg/kg, 72 h, dose level High, time 3 day
[3] = 450 mg/kg, 120 h, dose level High, time 5 day

SMILES: C[C@@H]1CN(c2c(F)c(N)c3c(=O)c(C(=O)O)cn(C4CC4)c3c2F)C[C@H](C)N1 [SPARFLOXACIN]
- ABSOLUTE BASOPHIL [1]: 0 CELLS/uL
- ABSOLUTE EOSINOPHIL [1]: 69.33 CELLS/uL
- ABSOLUTE LYMPHOCYTE [1]: 8350.33 CELLS/uL
- ABSOLUTE MONOCYTE [1]: 91.33 CELLS/uL
- ABSOLUTE SEGMENTED NEUTROPHIL [1]: 455.67 CELLS/uL
- BASOPHIL [1]: 0%
- EOSINOPHIL [1]: 0.67%
- ERYTHROCYTE COUNT [1]: 5.79 x10E6/uL
- HEMATOCRIT [1]: 35.13%
- HEMOGLOBIN [1]: 13.97 G/DL
- LEUKOCYTE COUNT [1]: 8.97 x10E3/uL
- LYMPHOCYTE [1]: 93%
- MEAN CORPUSCULAR HEMOGLOBIN [1]: 24.13 pg
- MEAN CORPUSCULAR HEMOGLOBIN CONCENTRATION [1]: 39.73 G/DL
- MEAN CORPUSCULAR VOLUME [1]: 60.73 fL
- MONOCYTE [1]: 1%
- NEUTROPHIL [1]: 5.33%
- NUCLEATED RED BLOOD CELLS [1]: 0 /100WBC
- PLATELET COUNT [1]: 1048 x10E3/uL
- ALANINE AMINOTRANSFERASE [1]: 62 u/L
- ALBUMIN [1]: 4.03 G/DL
- ALKALINE PHOSPHATASE [1]: 251.67 u/L
- ASPARTATE AMINOTRANSFERASE [1]: 82 u/L
- BLOOD UREA NITROGEN [1]: 13.33 mg/dL
- CARBON DIOXIDE [1]: 33 mmol/L
- CHLORIDE [1]: 98.33 MEQ/L
- CHOLESTEROL [1]: 65.67 mg/dL
- CREATINE PHOSPHOKINASE [1]: 381.67 u/L
- CREATININE [1]: 0.18 mg/dL
- GLUCOSE [1]: 147.33 mg/dL
- LACTATE DEHYDROGENASE [1]: 161.33 u/L
- LIPASE [1]: 12 u/L
- PHOSPHORUS [1]: 10.9 mg/dL
- POTASSIUM [1]: 6.43 MEQ/L
- SODIUM [1]: 144.2 MEQ/L
- TOTAL BILIRUBIN [1]: 0.13 mg/dL
- TOTAL PROTEIN [1]: 6 G/DL
- URIC ACID [1]: 0.77 mg/dL
- ABSOLUTE BASOPHIL [2]: 0 CELLS/uL
- ABSOLUTE EOSINOPHIL [2]: 0 CELLS/uL
- ABSOLUTE LYMPHOCYTE [2]: 14211.67 CELLS/uL
- ABSOLUTE MONOCYTE [2]: 0 CELLS/uL
- ABSOLUTE SEGMENTED NEUTROPHIL [2]: 1355 CELLS/uL
- BASOPHIL [2]: 0%
- EOSINOPHIL [2]: 0%
- ERYTHROCYTE COUNT [2]: 5.74 x10E6/uL
- HEMATOCRIT [2]: 34.87%
- HEMOGLOBIN [2]: 13.93 G/DL
- LEUKOCYTE COUNT [2]: 15.57 x10E3/uL
- LYMPHOCYTE [2]: 91.33%
- MEAN CORPUSCULAR HEMOGLOBIN [2]: 24.3 pg
- MEAN CORPUSCULAR HEMOGLOBIN CONCENTRATION [2]: 40 G/DL
- MEAN CORPUSCULAR VOLUME [2]: 60.77 fL
- MONOCYTE [2]: 0%
- NEUTROPHIL [2]: 8.67%
- NUCLEATED RED BLOOD CELLS [2]: 0 /100WBC
- PLATELET COUNT [2]: 1148.33 x10E3/uL
- ALANINE AMINOTRANSFERASE [2]: 55.33 u/L
- ALBUMIN [2]: 3.93 G/DL
- ALKALINE PHOSPHATASE [2]: 277.33 u/L
- ASPARTATE AMINOTRANSFERASE [2]: 69.33 u/L
- BLOOD UREA NITROGEN [2]: 12 mg/dL
- CARBON DIOXIDE [2]: 31.67 mmol/L
- CHLORIDE [2]: 101 MEQ/L
- CHOLESTEROL [2]: 72.33 mg/dL
- CREATINE PHOSPHOKINASE [2]: 173 u/L
- CREATININE [2]: 0.21 mg/dL
- GLUCOSE [2]: 159.67 mg/dL
- LACTATE DEHYDROGENASE [2]: 146 u/L
- LIPASE [2]: 10.67 u/L
- PHOSPHORUS [2]: 10.6 mg/dL
- POTASSIUM [2]: 6.2 MEQ/L
- SODIUM [2]: 143.4 MEQ/L
- TOTAL BILIRUBIN [2]: 0.17 mg/dL
- TOTAL PROTEIN [2]: 5.73 G/DL
- URIC ACID [2]: 1.3 mg/dL
- ABSOLUTE BASOPHIL [3]: 0 CELLS/uL
- ABSOLUTE EOSINOPHIL [3]: 0 CELLS/uL
- ABSOLUTE LYMPHOCYTE [3]: 8740 CELLS/uL
- ABSOLUTE MONOCYTE [3]: 96.67 CELLS/uL
- ABSOLUTE SEGMENTED NEUTROPHIL [3]: 396.67 CELLS/uL
- BASOPHIL [3]: 0%
- EOSINOPHIL [3]: 0%
- ERYTHROCYTE COUNT [3]: 5.14 x10E6/uL
- HEMATOCRIT [3]: 33.83%
- HEMOGLOBIN [3]: 13.17 G/DL
- LEUKOCYTE COUNT [3]: 9.23 x10E3/uL
- LYMPHOCYTE [3]: 94.67%
- MEAN CORPUSCULAR HEMOGLOBIN [3]: 25.83 pg
- MEAN CORPUSCULAR HEMOGLOBIN CONCENTRATION [3]: 38.93 G/DL
- MEAN CORPUSCULAR VOLUME [3]: 66.27 fL
- MONOCYTE [3]: 1%
- NEUTROPHIL [3]: 4.33%
- NUCLEATED RED BLOOD CELLS [3]: 0 /100WBC
- PLATELET COUNT [3]: 1047.33 x10E3/uL
- ALANINE AMINOTRANSFERASE [3]: 67.33 u/L
- ALBUMIN [3]: 4.03 G/DL
- ALKALINE PHOSPHATASE [3]: 374 u/L
- ASPARTATE AMINOTRANSFERASE [3]: 88.67 u/L
- BLOOD UREA NITROGEN [3]: 11 mg/dL
- CARBON DIOXIDE [3]: 30 mmol/L
- CHLORIDE [3]: 97.67 MEQ/L
- CHOLESTEROL [3]: 86 mg/dL
- CREATINE PHOSPHOKINASE [3]: 412.67 u/L
- CREATININE [3]: 0.19 mg/dL
- GLUCOSE [3]: 177.67 mg/dL
- LACTATE DEHYDROGENASE [3]: 159.67 u/L
- LIPASE [3]: 10.33 u/L
- PHOSPHORUS [3]: 12.17 mg/dL
- POTASSIUM [3]: 5.6 MEQ/L
- SODIUM [3]: 141 MEQ/L
- TOTAL BILIRUBIN [3]: 0.1 mg/dL
- TOTAL PROTEIN [3]: 5.93 G/DL
- URIC ACID [3]: 1 mg/dL
